Patent US20220313581A1, “NOVEL COMPOUNDS FOR SKIN LIGHTENING” (Conopco, Inc. , d/b/a UNILEVER, priority 2019, published 2022)

Test system: Melanoderm human tissue (MEL-300-B, Mattek Corp.)
Experiment: Melanoderm assay (melanin quantitation)
Assay type: cell-based
Conditions: melanoderm treatment, 10 uM, compared to vehicle control
Experimental: Control compounds consisted of a negative control (ultrapure water), vehicle control [Dimethylsulfoxide (DMSO) in ultrapure water—final concentration of 0.1%] and positive control (2% kojic acid in ultrapure water—final concentration of 700 uM). Test compounds where prepared in DMSO at 10 mM concentrations and diluted with EPI-100-LLMM media (Mattek Corp.) to a final concentration of 10 uM. Melanoderm human tissue (MEL-300-B, Mattek Corp.) was equilibrated with EPI-100-NMM media for 24 h, followed by equilibration with EPI-100-LLMM media for 48 h prior to treatment with test compounds and controls. Dosing and re-feeding of melanoderms with controls and test compounds continued for a total of 12 d following standard protocols and the melanoderms collected for melanin quantitation, viability analysis and macroscopic/microscopic imaging analysis. For melanin quantitation, tissues were suspended in phosphate buffer saline (PBS) buffer (5 ml) for 5 min, removed from the PBS and washed/rinsed with additional PBS (2 ml). Tissues were treated with 1% sodium bicarbonate solution (300 ul) for 30 min, followed by removal of the sodium bicarbonate solution and washed/rinsed with PBS solution (2×2 ml). Tissues were suspended in Solvable reagent (500 ul) and incubated at 95° C. for 24 h along with melanin standard samples (prepared by suspending melanin (cat #M8631, Sigma-Aldrich) in Solvable reagent to generate melanin standards at 0, 2.5, 5, 10, 25, 50 and 100 ug). All incubated samples were centrifuged at 13000 rpm for 5 min and the optical density of the supernatant was read/determined at 490 nm. The amount of melanin (ug) from each tissue sample was determined from the melanin standard samples calibration curve. Protein concentration of tissue samples was determined using the BCA protein assay kit (Pierce) and melanin content was normalized and expressed as melanin (ug)/protein (ug) (Table 1). Tissue viability as a result of test compound dosing/feeding relative to negative and vehicle controls was determined using the WST-1 reagent kit (cat #05015944001, Roche). Tissue images were examined macroscopically to assess the skin lightening ability of test compounds compared to negative, vehicle and positive controls and microscopically (10× magnification) to assess cytotoxicity.

**Q.** With `CC(C)Oc1ccc(C(NC2CCC(O)CC2)C2CCCCC2)cc1` (stereo not drawn) [Example 1, 4-((cyclohexyl(4-isopropoxyphenyl)methyl)amino)cyclohexanol] as the compound, how does the “Melanin content / skin lightening effect (in words)” value read?
**A.** Its value is “reduced melanin content”.

**Q.** `CC(C)Oc1ccc(C(NC2CCC(CCO)CC2)c2ccccc2)cc1` (stereo not drawn) [Example 2, 2-(4-(((4-isopropoxyphenyl)(phenyl)methyl)amino)cyclohexyl)ethanol] was tested. Which “Melanin content / skin lightening effect (in words)” value did it give?
**A.** The value was “reduced melanin content”.

**Q.** How did the “Melanin content / skin lightening effect (in words)” value turn out when `CC1CCC(NC(c2ccccc2)c2ccc(OC(C)C)cc2)CC1` (stereo not drawn) [Example 3, N-((4-isopropoxyphenyl)(phenyl)methyl)-4-methylcyclohexanamine] was run?
**A.** Its value is “reduced melanin content”.

Same assay, conditions: test compound 10 uM; 12 d dosing; melanin normalized to protein; mean +/− standard deviation, n = 3; vehicle control 0.240 +/− 0.020

**Q.** With `CC(C)Oc1ccc(C(NC2CCC(O)CC2)C2CCCCC2)cc1` (stereo not drawn) [Example 1, 4-((cyclohexyl(4-isopropoxyphenyl)methyl)amino)cyclohexanol] as the compound, how does the “Melanin (μg/μg protein)” value read?
**A.** The value was 0.158 +/− 0.006 μg/μg protein.

**Q.** How did the “Melanin (μg/μg protein)” value turn out when `CC(C)Oc1ccc(C(NC2CCC(CCO)CC2)c2ccccc2)cc1` (stereo not drawn) [Example 2, 2-(4-(((4-isopropoxyphenyl)(phenyl)methyl)amino)cyclohexyl)ethanol] was run?
**A.** Its value is 0.076 +/− 0.012 μg/μg protein.

**Q.** Which “Melanin (μg/μg protein)” value does the source give for `CC1CCC(NC(c2ccccc2)c2ccc(OC(C)C)cc2)CC1` (stereo not drawn) [Example 3, N-((4-isopropoxyphenyl)(phenyl)methyl)-4-methylcyclohexanamine] here?
**A.** The value was 0.144 +/− 0.006 μg/μg protein.
